In patent publication US20250163086A1, “Crystalline Forms” (Viatris Asia Pacific Pte. Ltd., priority 2016, published 2025):

assay: Water content of the crystalline forms (gravimetric vapour sorption, 25° C.); assay type: physicochemical; conditions: water content varies as a function of relative humidity; GVS profiles 20 to 75% RH at 25° C. (FIGS. 4-6); hydrochloride
Description: Measurements were performed on an IGASORP Model HAS-036-080 moisture sorption instrument (Hiden Isochema, Warrington, UK) operated in stepping mode at 25° C. The sample was allowed to equilibrate at the starting relative humidity (RH) before starting a pre-defined humidity program in steps of 5% ΔRH and with a maximal equilibration time of 24 hours per step. About 20 to 30 mg of each sample was used.

Row | SMILES | coordinated and/or non-coordinated water comprised in the crystalline form [%]
1 | CCCCOC(=O)N1CCN(C(=O)[C@H](CP(=O)(O)O)NC(=O)c2cc(N3CC[C@H](OC)C3)nc(-c3ccccc3)n2)CC1.Cl [Crystalline form 1, 4-((R)-2-{[6-((S)-3-methoxy-pyrrolidin-1-yl)-2-phenyl-pyrimidine-4-carbonyl]-amino}-3-phosphono-propionyl)-piperazine-1-carboxylic acid butyl ester hydrochloride] | 0 to 3
2 | CCCCOC(=O)N1CCN(C(=O)[C@H](CP(=O)(O)O)NC(=O)c2cc(N3CC[C@H](OC)C3)nc(-c3ccccc3)n2)CC1.Cl [Crystalline form 2, 4-((R)-2-{[6-((S)-3-methoxy-pyrrolidin-1-yl)-2-phenyl-pyrimidine-4-carbonyl]-amino}-3-phosphono-propionyl)-piperazine-1-carboxylic acid butyl ester hydrochloride] | 5 to 10
3 | CCCCOC(=O)N1CCN(C(=O)[C@H](CP(=O)(O)O)NC(=O)c2cc(N3CC[C@H](OC)C3)nc(-c3ccccc3)n2)CC1.Cl [Crystalline form 3, 4-((R)-2-{[6-((S)-3-methoxy-pyrrolidin-1-yl)-2-phenyl-pyrimidine-4-carbonyl]-amino}-3-phosphono-propionyl)-piperazine-1-carboxylic acid butyl ester hydrochloride] | 2.5 to 8
